In PubChem BioAssay (NCI):
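How tested: cells in 96-well plates exposed to compound for 48 hours at five concentrations. TGI denotes the concentration required for complete inhibition of growth.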

How the values were obtained:
Assay in all cases: NCI tumour cell line growth inhibition, 48 h
SN12C renal = system: SN12C renal
M14 melanoma = system: M14 melanoma
HOP-92 NSCLC = system: HOP-92 NSCLC
HS 578T breast = system: HS 578T breast
IGROV1 ovarian = system: IGROV1 ovarian
T-47D breast = system: T-47D breast
CAKI-1 renal = system: CAKI-1 renal
SW-620 colon = system: SW-620 colon
MALME-3M melanoma = system: MALME-3M melanoma
SF-539 CNS = system: SF-539 CNS
SNB-19 CNS = system: SNB-19 CNS
OVCAR-3 ovarian = system: OVCAR-3 ovarian
SF-295 CNS = system: SF-295 CNS
MDA-MB-435 = system: MDA-MB-435
HL-60(TB) leukemia = system: HL-60(TB) leukemia
MCF7 breast = system: MCF7 breast
HT29 colon = system: HT29 colon
COLO 205 colon = system: COLO 205 colon
NCI/ADR-RES ovarian = system: NCI/ADR-RES ovarian
LOX IMVI melanoma = system: LOX IMVI melanoma
RPMI-8226 leukemia = system: RPMI-8226 leukemia
HOP-62 NSCLC = system: HOP-62 NSCLC
TK-10 renal = system: TK-10 renal
NCI-H23 lung = system: NCI-H23 lung
DU-145 prostate = system: DU-145 prostate
A498 renal = system: A498 renal
CCRF-CEM leukemia = system: CCRF-CEM leukemia
UACC-62 melanoma = system: UACC-62 melanoma
NCI-H460 lung = system: NCI-H460 lung
PC-3 prostate = system: PC-3 prostate
U251 CNS = system: U251 CNS
SR leukemia = system: SR leukemia
SK-MEL-28 melanoma = system: SK-MEL-28 melanoma
HCC-2998 colon = system: HCC-2998 colon
ACHN renal = system: ACHN renal
MDA-N = system: MDA-N
OVCAR-5 ovarian = system: OVCAR-5 ovarian
SK-MEL-2 melanoma = system: SK-MEL-2 melanoma
HCT-116 colon = system: HCT-116 colon
UO-31 renal = system: UO-31 renal
OVCAR-8 ovarian = system: OVCAR-8 ovarian
UACC-257 melanoma = system: UACC-257 melanoma
MDA-MB-231 breast = system: MDA-MB-231 breast
NCI-H226 lung = system: NCI-H226 lung
HCT-15 colon = system: HCT-15 colon
EKVX NSCLC = system: EKVX NSCLC
SK-OV-3 ovarian = system: SK-OV-3 ovarian
A549 NSCLC = system: A549 NSCLC
SF-268 CNS = system: SF-268 CNS
BT-549 breast = system: BT-549 breast
SK-MEL-5 melanoma = system: SK-MEL-5 melanoma
RXF 393 renal = system: RXF 393 renal
KM12 colon = system: KM12 colon
NCI-H522 lung = system: NCI-H522 lung
OVCAR-4 ovarian = system: OVCAR-4 ovarian
786-0 renal = system: 786-0 renal
SNB-75 CNS = system: SNB-75 CNS
K-562 leukemia = system: K-562 leukemia
MOLT-4 leukemia = system: MOLT-4 leukemia

CC(=O)OC1/C(=C/c2ccc([N+](=O)[O-])cc2)C[C@H]2[C@@H]3CC=C4C[C@@H](OC(C)=O)CC[C@]4(C)[C@H]3CC[C@]12C (stereo partly drawn) was tested, and the TGI (SN12C renal) was > 100 µM, the TGI (M14 melanoma) was > 100 µM and the TGI (HOP-92 NSCLC) was > 100 µM. For the same compound, the TGI (HS 578T breast) was > 100 µM, the TGI (IGROV1 ovarian) was > 100 µM and the TGI (T-47D breast) was > 100 µM. The TGI (CAKI-1 renal) was > 100 µM, the TGI (SW-620 colon) was > 100 µM and the TGI (MALME-3M melanoma) was > 100 µM. For the same compound, the TGI (SF-539 CNS) was > 100 µM, the TGI (SNB-19 CNS) was > 100 µM and the TGI (OVCAR-3 ovarian) was > 100 µM. For the same compound, the TGI (SF-295 CNS) was > 100 µM, the TGI (MDA-MB-435) was > 100 µM and the TGI (HL-60(TB) leukemia) was 13.3 µM. The TGI (MCF7 breast) was > 100 µM, the TGI (HT29 colon) was > 100 µM and the TGI (COLO 205 colon) was > 100 µM. The TGI (NCI/ADR-RES ovarian) was > 100 µM, the TGI (LOX IMVI melanoma) was > 100 µM and the TGI (RPMI-8226 leukemia) was > 100 µM. For the same compound, the TGI (HOP-62 NSCLC) was > 100 µM, the TGI (TK-10 renal) was > 80.3 µM and the TGI (NCI-H23 lung) was > 100 µM. For the same compound, the TGI (DU-145 prostate) was > 100 µM, the TGI (A498 renal) was > 96.2 µM and the TGI (CCRF-CEM leukemia) was > 64.8 µM. For the same compound, the TGI (UACC-62 melanoma) was > 100 µM, the TGI (NCI-H460 lung) was > 100 µM and the TGI (PC-3 prostate) was > 100 µM. The TGI (U251 CNS) was > 100 µM, the TGI (SR leukemia) was > 20.7 µM and the TGI (SK-MEL-28 melanoma) was > 100 µM. The TGI (HCC-2998 colon) was > 100 µM, the TGI (ACHN renal) was > 100 µM and the TGI (MDA-N) was > 100 µM. For the same compound, the TGI (OVCAR-5 ovarian) was > 100 µM, the TGI (SK-MEL-2 melanoma) was > 100 µM and the TGI (HCT-116 colon) was > 100 µM. The TGI (UO-31 renal) was > 100 µM, the TGI (OVCAR-8 ovarian) was > 100 µM and the TGI (UACC-257 melanoma) was > 100 µM. For the same compound, the TGI (MDA-MB-231 breast) was > 100 µM, the TGI (NCI-H226 lung) was > 100 µM and the TGI (HCT-15 colon) was > 100 µM. For the same compound, the TGI (EKVX NSCLC) was > 100 µM, the TGI (SK-OV-3 ovarian) was > 100 µM and the TGI (A549 NSCLC) was > 100 µM. For the same compound, the TGI (SF-268 CNS) was > 100 µM, the TGI (BT-549 breast) was > 100 µM and the TGI (SK-MEL-5 melanoma) was > 100 µM. The TGI (RXF 393 renal) was 60.4 µM, the TGI (KM12 colon) was > 100 µM and the TGI (NCI-H522 lung) was > 100 µM. For the same compound, the TGI (OVCAR-4 ovarian) was > 100 µM and the TGI (786-0 renal) was > 100 µM.
For Cc1cn(CC2=NCCN2)c(=O)[nH]c1=O, the TGI (SN12C renal) was > 100 µM, the TGI (M14 melanoma) was > 100 µM and the TGI (HOP-92 NSCLC) was > 100 µM. For the same compound, the TGI (HS 578T breast) was > 100 µM, the TGI (IGROV1 ovarian) was > 100 µM and the TGI (SNB-75 CNS) was > 100 µM. The TGI (T-47D breast) was > 100 µM, the TGI (CAKI-1 renal) was > 100 µM and the TGI (SW-620 colon) was > 100 µM. The TGI (MALME-3M melanoma) was > 100 µM, the TGI (SNB-19 CNS) was > 100 µM and the TGI (SF-295 CNS) was > 100 µM. For the same compound, the TGI (MDA-MB-435) was > 100 µM, the TGI (HL-60(TB) leukemia) was > 100 µM and the TGI (MCF7 breast) was > 100 µM. The TGI (HT29 colon) was > 100 µM, the TGI (COLO 205 colon) was > 100 µM and the TGI (NCI/ADR-RES ovarian) was > 100 µM. The TGI (LOX IMVI melanoma) was > 100 µM, the TGI (RPMI-8226 leukemia) was > 100 µM and the TGI (HOP-62 NSCLC) was > 100 µM. The TGI (TK-10 renal) was > 100 µM, the TGI (NCI-H23 lung) was > 100 µM and the TGI (DU-145 prostate) was > 100 µM. For the same compound, the TGI (A498 renal) was > 100 µM, the TGI (CCRF-CEM leukemia) was > 100 µM and the TGI (UACC-62 melanoma) was > 100 µM. The TGI (NCI-H460 lung) was > 100 µM, the TGI (K-562 leukemia) was > 100 µM and the TGI (PC-3 prostate) was > 100 µM. For the same compound, the TGI (U251 CNS) was > 100 µM, the TGI (SR leukemia) was > 100 µM and the TGI (SK-MEL-28 melanoma) was > 100 µM. The TGI (HCC-2998 colon) was > 100 µM, the TGI (ACHN renal) was > 100 µM and the TGI (MDA-N) was > 100 µM. The TGI (OVCAR-5 ovarian) was > 100 µM, the TGI (SK-MEL-2 melanoma) was > 100 µM and the TGI (HCT-116 colon) was > 100 µM. For the same compound, the TGI (UO-31 renal) was > 100 µM, the TGI (OVCAR-8 ovarian) was > 100 µM and the TGI (UACC-257 melanoma) was > 100 µM. The TGI (MDA-MB-231 breast) was > 100 µM, the TGI (NCI-H226 lung) was > 100 µM and the TGI (HCT-15 colon) was > 100 µM. For the same compound, the TGI (EKVX NSCLC) was > 100 µM, the TGI (SK-OV-3 ovarian) was > 100 µM and the TGI (A549 NSCLC) was > 100 µM. For the same compound, the TGI (SF-268 CNS) was > 100 µM, the TGI (MOLT-4 leukemia) was > 100 µM and the TGI (BT-549 breast) was > 100 µM. For the same compound, the TGI (SK-MEL-5 melanoma) was > 100 µM, the TGI (RXF 393 renal) was > 100 µM and the TGI (KM12 colon) was > 100 µM. For the same compound, the TGI (NCI-H522 lung) was > 100 µM, the TGI (OVCAR-4 ovarian) was > 100 µM and the TGI (786-0 renal) was > 100 µM.
